In patent US20240228487A1, “FUSED HETEROCYCLIC COMPOUND AND APPLICATION THEREOF, PHARMACEUTICAL COMPOSITIONS CONTAINING SAME AND APPLICATION THEREOF” (ZHEJIANG UNIVERSITY, priority 2021, published 2024):
pIC50: −log10 of the molar value. Counter-ions that a name gives are not always drawn.

biological target: T1, human TRPM2 channels (Homo sapiens, UniProt O94759); assay: whole cell patch clamp, inhibition of TRPM2 channel current; type: cell-based; details: HEK293 cells stably expressing human TRPM2, 500 μM ADPR
T1 construct: expressed in transfected cells
Method: The fused heterocyclic compound of the present invention has an inhibitory effect on the TRPM2 channel, and its pharmacological activity is measured using whole cell patch clamp technology, the corresponding steps are as follows: Incubating HEK293 cells stably expressing human TRPM2 channels in DMEM/F-12 medium containing 10% bovine serum, 50 units/mL of penicillin and […] of streptomycin under the condition of 5% CO2 and 37° C. The cells before testing are stored in the extracellular fluid (147 mM NaCl, 2 mM KCl, 1 mM MgCl2, 2 mM CaCl2, 10 mM HEPES, 13 mM glucose, pH 7.4). The electrode is filled with the electrode internal solution (147 mM NaCl, 0.05 mM EGTA, 1 mM MgCl2, 10 mM HEPES, 0.5 mM ADPR, pH=7.3), and the resistance is maintained at 3-5 M Ω. Administering ADPR into cells through electrodes, and detecting the ADPR concentration used to activate TRPM2 as 500 μM, when detecting a stable current, perfusing the corresponding concentration of fused heterocyclic compound II-1 into the extracellular fluid for at least 60 seconds. record the change in current magnitude using voltage ramp mode, changing the voltage from −100 mV to+100 mV within 500 ms, with a normal clamp voltage of 0 mV and a TRPM every 5 seconds; finally, replacing the extracellular fluid with a solution with pH=5.0 to block the TRPM2 current, the electrophysiological current test results obtained are shown in Table 1, and the electrophysiological current graph obtained is shown in FIG. 1. Similarly, administering corresponding concentrations of other fused heterocyclic compounds (II-2˜II-54, III-1˜III-11) into the extracellular fluid, taking electrophysiological tests using the same method, the results are shown in Table 1. The electrophysiological representative current graphs of some fused heterocyclic compounds (II-9, II-19, and II-36) inhibiting TRPM2 channel current are shown in FIG. 1.

T1 sequence (O94759 whole entry): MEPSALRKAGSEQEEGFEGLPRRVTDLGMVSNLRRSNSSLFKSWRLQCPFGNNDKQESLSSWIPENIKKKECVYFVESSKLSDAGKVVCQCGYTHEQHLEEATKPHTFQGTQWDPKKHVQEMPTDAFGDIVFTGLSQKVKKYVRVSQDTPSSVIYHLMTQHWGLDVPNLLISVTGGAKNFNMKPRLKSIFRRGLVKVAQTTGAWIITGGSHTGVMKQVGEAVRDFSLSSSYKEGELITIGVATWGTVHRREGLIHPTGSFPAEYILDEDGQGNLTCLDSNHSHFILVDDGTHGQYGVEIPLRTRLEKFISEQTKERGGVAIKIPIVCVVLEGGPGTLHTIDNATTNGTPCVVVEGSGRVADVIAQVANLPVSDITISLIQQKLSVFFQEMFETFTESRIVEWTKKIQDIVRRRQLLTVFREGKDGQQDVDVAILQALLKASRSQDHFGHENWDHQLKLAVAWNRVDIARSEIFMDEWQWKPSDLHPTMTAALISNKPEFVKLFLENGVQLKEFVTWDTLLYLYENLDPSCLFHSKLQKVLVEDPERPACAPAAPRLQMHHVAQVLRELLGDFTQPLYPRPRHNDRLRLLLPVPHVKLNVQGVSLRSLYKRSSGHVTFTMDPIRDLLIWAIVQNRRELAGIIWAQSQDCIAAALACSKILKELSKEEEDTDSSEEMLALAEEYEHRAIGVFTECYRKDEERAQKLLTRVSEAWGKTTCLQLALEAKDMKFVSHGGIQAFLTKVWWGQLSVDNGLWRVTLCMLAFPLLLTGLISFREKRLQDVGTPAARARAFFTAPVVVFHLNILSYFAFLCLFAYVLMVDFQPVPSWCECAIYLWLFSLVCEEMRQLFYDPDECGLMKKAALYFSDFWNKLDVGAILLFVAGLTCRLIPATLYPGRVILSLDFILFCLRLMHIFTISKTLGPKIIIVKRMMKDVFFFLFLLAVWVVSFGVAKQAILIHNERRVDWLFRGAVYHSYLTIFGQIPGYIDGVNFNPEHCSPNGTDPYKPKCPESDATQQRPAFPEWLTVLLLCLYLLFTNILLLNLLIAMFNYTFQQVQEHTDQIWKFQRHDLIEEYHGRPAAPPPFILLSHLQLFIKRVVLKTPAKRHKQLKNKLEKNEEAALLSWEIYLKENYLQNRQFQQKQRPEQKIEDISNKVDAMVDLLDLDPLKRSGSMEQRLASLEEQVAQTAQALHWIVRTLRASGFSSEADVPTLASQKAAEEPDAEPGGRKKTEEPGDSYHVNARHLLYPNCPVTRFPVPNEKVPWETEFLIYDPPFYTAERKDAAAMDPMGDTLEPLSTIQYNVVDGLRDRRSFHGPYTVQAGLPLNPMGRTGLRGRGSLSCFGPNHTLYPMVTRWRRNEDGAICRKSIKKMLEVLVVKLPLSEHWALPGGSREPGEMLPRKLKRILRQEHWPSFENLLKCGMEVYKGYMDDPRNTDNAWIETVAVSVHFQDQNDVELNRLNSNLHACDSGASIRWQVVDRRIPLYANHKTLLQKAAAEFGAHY

SMILES	pIC50
O=C(c1ccccc1)c1cc(C(=O)N2CCNCC2)cc2cccn12 [II-37, (5-Benzimide-7-yl) (piperazin-1-yl) ketone hydrochloride]	4.70 to 5.00
CCOC(=O)c1cc(C(=O)c2cccc(OC)c2)n2cccc2c1 [II-12, Ethyl 5-(3-methoxybenzoyl) indolizine-7-carboxylate]	4.70 to 5.00
CCOC(=O)c1cc(C(OC)c2ccccc2)n2cccc2c1 (stereo not shown) [II-53]	5.00 to 6.00
CCCOC(=O)c1cc(C(=O)c2ccccc2)n2cccc2c1 [II-2, 5-benzoimide 7-carboxypropyl ester]	5.00 to 6.00
O=C(c1ccccc1)c1cc(C(=O)N2CCCCC2)cc2nccn12 [III-10, (5-benzimidazole[1,2-a]pyridine-7-yl) (piperidin-1-yl) ketone]	4.70 to 5.00
CN(C)C(=O)c1cc(C(=O)c2ccccc2)n2cccc2c1 [II-22, 5-benzoyl-N, N-dimethylindolizine-7-formamide]	4.70 to 5.00
CCN(CC)C(=O)c1cc(C(O)c2ccccc2)n2cccc2c1 (stereo not shown) [II-45, N,N-diethyl-5-(hydroxy(phenyl)methyl) indolizine-7-formamide]	4.70 to 5.00
CCOC(=O)c1cc(C(=O)c2ccccc2)n2ccnc2c1 [III-4, 5-benzimidazolo[1,2-a]pyridine-7-ethyl carboxylate]	4.70 to 5.00
CN1CCN(C(=O)c2cc(C(=O)c3ccccc3)n3cccc3c2)CC1 [II-31, (5-Benzimide-7-yl) (4-methylpiperazin-1-yl) ketone]	4.70 to 5.00
COC(=O)c1cc(C(=O)c2ccccn2)n2cccc2c1 [II-17, 5-methylpyridinimide-7-methyl carboxylate]	5.00 to 6.00
CN(C)C(=O)c1cc(C(=O)c2ccccc2)n2ccnc2c1 [III-6, 5-Benzoyl-N,N-dimethylimidazole[1,2-a]pyridine-7-formamide]	4.70 to 5.00
CCN(CC)C(=O)c1cc(C(OC(C)=O)c2ccccc2)n2cccc2c1 (stereo not shown) [II-50]	4.70 to 5.00
CCN(CC)C(=O)c1cc(C(=O)c2ccccc2)n2ccnc2c1 [III-8, 5-Benzoyl-N,N-diethylimidazole[1,2-a]pyridine-7-formamide]	4.70 to 5.00
O=C(O)c1cc(C(O)c2ccccc2)n2cccc2c1 (stereo not shown) [II-42]	4.70 to 5.00
COC(=O)c1cc(C(=O)c2cccs2)n2cccc2c1 [II-15, 5-(thiophen-2-carbonyl)indolizine-7-methyl carboxylate]	4.70 to 5.00
CCOC(=O)c1cc(C(O)c2ccccc2)n2ccnc2c1 (stereo not shown) [III-11, 5-(hydroxy (phenyl)methylimidazolo [1,2-a]pyridine-7-ethyl carboxylate]	4.30 to 4.70

SMILES	pIC50
CCOC(=O)c1cc(C(O)c2ccccc2)n2cccc2c1 (stereo not shown) [II-41]	4.70 to 5.00
CCOC(=O)c1cc(C(=O)c2ccco2)n2cccc2c1 [II-14, 5-(furan-2-carbonyl) indolizine-7-ethyl carboxylate]	5.00 to 6.00
O=C(c1ccccc1)c1cc(C(=O)N2CCCC2)cc2cccn12 [II-27, (5-benzoimide 7-yl) (pyrrolidine-1-yl) ketone]	4.70 to 5.00
CCOC(=O)c1cc(C(=O)c2ccccn2)n2cccc2c1 [II-18, 5-methylpyridinimide-7-ethyl carboxylate]	5.00 to 6.00
COC(=O)c1cc(C(=O)c2ccc(Cl)cc2)n2ccnc2c1 [III-2, 5-(4-chlorobenzoyl) imidazolo [1,2-a]pyridine-7-methyl carboxylate]	4.70 to 5.00
COC(=O)c1cc(C(=O)c2cccc(F)c2)n2cccc2c1 [II-6, 5-(3-Fluorobenzoyl)indolizine-7-methyl carboxylate]	5.00 to 6.00
CN(C)C(=O)c1cc(C(O)c2ccccc2)n2cccc2c1 (stereo not shown) [II-44, 5-(hydroxy(phenyl)methyl)-N, N-dimethylindolizine-7-formamide]	4.70 to 5.00
CCN(CC)C(=O)c1cc(C(=O)c2ccccc2F)n2cccc2c1 [II-32, N, N-Diethyl-5-(2-fluorobenzoyl) indolizine-7-formamide]	4.70 to 5.00
CCNC(=O)c1cc(C(=O)c2ccccc2)n2ccnc2c1 [III-7, 5-benzoyl-N-ethylimidazolo[1,2-a]pyridine-7-formamide]	5.00 to 6.00
COC(=O)c1cc(C(=O)c2ccccc2F)n2cccc2c1 [II-8, 5-(2-Fluorobenzoyl) indolizine-7-methyl carboxylate]	5.00 to 6.00
O=C(c1ccccn1)c1cc(C(=O)N2CCNCC2)cc2cccn12 [II-36, (5-Pyridinyllin-2-yl) (Piperazin-1-yl) Methylketone]	4.30 to 4.70
CCCC(=O)OC(c1ccccc1)c1cc(C(=O)OCC)cc2cccn12 (stereo not shown) [II-48]	4.70 to 5.00
CCN(C)C(=O)c1cc(C(O)c2ccccc2)n2cccc2c1 (stereo not shown) [II-46, N-ethyl-5-(hydroxy(phenyl)methyl)-N-methylindolizine-7-formamide]	4.70 to 5.00
CC(=O)c1cc(C(=O)c2ccccc2)n2cccc2c1 [II-3, 1-(5-Benzimide-7-yl) ethane-1-ketone]	4.70 to 5.00
CCOC(=O)c1cc(C(OC(C)=O)c2ccccc2)n2cccc2c1 (stereo not shown) [II-47, 5-(acetoxy (phenyl)methyl) indolizine-7-ethyl carboxylate]	4.70 to 5.00
O=C(c1ccccc1)c1cc(C(=O)N2CCCC2)cc2nccn12 [III-9]	4.70 to 5.00

Second part, the compound after the results:

pIC50	SMILES
4.70 to 5.00	CCNC(=O)c1cc(C(O)c2ccccc2)n2cccc2c1 (stereo not shown) [II-43, N-ethyl-5-(hydroxy(phenyl)methyl) indolizine-7-formamide]
4.30 to 4.70	O=C(c1ccccc1)c1cc(C(=O)N2CCOCC2)cc2cccn12 [II-30, (5-benzimide-7-yl) (morphyryl) ketone]
4.70 to 5.00	O=C(c1ccccn1)c1cc(C(=O)N2CCNCC2)cc2cccn12 [II-40, hydrochloride]
4.70 to 5.00	COC(=O)c1cc(C(=O)c2ccc(C)cc2)n2ccnc2c1 [III-3, 5-(4-methylbenzoyl) imidazolo [1,2-a]pyridine-7-methyl carboxylate]
5.00 to 6.00	CCN(C)C(=O)c1cc(C(=O)c2ccccc2)n2cccc2c1 [II-24, 5-Benzoyl-N-ethyl-N-methylindolizine-7-formamide]
4.70 to 5.00	O=C(c1ccccn1)c1cc(C(=O)N2CCCC2)cc2cccn12 [II-35]
5.00 to 6.00	CCOC(=O)c1cc(C(=O)c2cccs2)n2cccc2c1 [II-16, 5-(thiophen-2-carbonyl) indolizine-7-ethyl carboxylate]
4.70 to 5.00	O=C(c1ccccc1F)c1cc(C(=O)N2CCCC2)cc2cccn12 [II-33, (5-(2-fluorobenzoyl)indolizine-7-yl) (pyrrolidine-1-yl) ketone]
4.70 to 5.00	O=C(O)c1cc(C(=O)c2ccccc2)n2ccnc2c1 [III-5, 5-benzimide azo [1,2-a]pyridine-7-carboxylic acid]
4.70 to 5.00	CCOC(=O)c1cc(C(=O)c2ccc(F)cc2)n2cccc2c1 [II-5, 5-(4-fluorobenzoyl) indolizinee-7-ethyl carboxylate]
4.30 to 4.70	CCN(CC)C(=O)c1cc(C(=O)c2ccccn2)n2cccc2c1 [II-38, N,N-Diethyl-5-pyridylimide-7-formamide hydrochloride]
5.00 to 6.00	CCOC(=O)c1cc(C(=O)c2cccc(Cl)c2)n2cccc2c1 [II-9, 5-(3-chlorobenzoyl) indolizine-7-ethyl carboxylate]
4.70 to 5.00	CCNC(=O)c1cc(C(=O)c2ccccc2)n2cccc2c1 [II-21, 5-benzoyl-N-ethylindolizine-7-formamide]
4.70 to 5.00	COC(=O)c1cc(C(=O)c2ccc(F)cc2)n2cccc2c1 [II-4, 5-(4-Fluorobenzoyl) indolizine-7-methyl carboxylate]
5.00 to 6.00	CCOC(=O)c1cc(C(=O)c2cccc(C)c2)n2cccc2c1 [II-11, 5-(3-methylbenzoyl) indolizine-7-Ethyl carboxylate]
4.30 to 4.70	CCCCCCCC(=O)OC(c1ccccc1)c1cc(C(=O)N(CC)CC)cc2cccn12 (stereo not shown) [II-52]
5.00 to 6.00	CON(C)C(=O)c1cc(C(=O)c2ccccc2)n2cccc2c1 [II-25, 5-Benzoyl-N-methoxy-N-methylindolizine-7-formamide]
4.70 to 5.00	NC(=O)c1cc(C(=O)c2ccccc2)n2cccc2c1 [II-20, 5-benzimide-7-formamide]
4.70 to 5.00	O=C(O)c1cc(C(=O)c2ccccc2)n2cccc2c1 [II-19, 5-benzimide-7-carboxylic acid]
4.70 to 5.00	O=C(c1ccccc1)c1cc(C(=O)N2CCCCC2)cc2cccn12 [II-28, (5-benzimide 7-yl) (piperidin-1-yl) ketone]
5.00 to 6.00	CCN(CC)C(=O)c1cc(C(=O)c2ccccn2)n2cccc2c1 [II-34, N, N-Diethyl-5-pyridylimide-7-formamide]
5.00 to 6.00	CCOC(=O)c1cc(C(=O)c2cccc(F)c2)n2cccc2c1 [II-7, 5-(3-fluorobenzoyl)indolizine-7-ethyl carboxylate]
5.00 to 6.00	COC(=O)c1cc(C(=O)c2ccco2)n2cccc2c1 [II-13, 5-(furan-2-carbonyl) indolizine-7-methyl carboxylate]
